According to US7365067B2, “Indanol derivative” (Sankyo Company, Limited, priority 2004, dated 2008):

Molecular target: T1, NK2 receptor (Cavia porcellus, UniProt Q64077)
T1 construct: in normal guinea pigs (body weights: about 500 g, Hartley male guinea pigs); from tissue; host or cells: airways of live Hartley male guinea pigs (in vivo)
T1 sequence (Q64077 1-402): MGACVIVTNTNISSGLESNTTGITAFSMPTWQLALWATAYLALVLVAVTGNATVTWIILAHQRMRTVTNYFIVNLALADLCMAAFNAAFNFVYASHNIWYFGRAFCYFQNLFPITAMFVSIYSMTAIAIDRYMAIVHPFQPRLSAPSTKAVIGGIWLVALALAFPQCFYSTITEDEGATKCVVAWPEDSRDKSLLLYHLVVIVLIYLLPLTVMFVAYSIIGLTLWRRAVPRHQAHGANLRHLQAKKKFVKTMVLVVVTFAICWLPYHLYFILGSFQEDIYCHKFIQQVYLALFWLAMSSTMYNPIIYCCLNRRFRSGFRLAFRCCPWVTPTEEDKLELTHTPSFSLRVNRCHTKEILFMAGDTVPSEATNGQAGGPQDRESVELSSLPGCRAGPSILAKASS
Experiment: Inhibitory Action on Airway Contraction (In Vivo, Transtracheal Administration), induced by neurokinin A (NKA)
Design: species or system guinea pig
Conditions: Hartley male guinea pigs; 10 μg/kg transtracheal; NKA 4 μg/kg i.v. administered 16 hours after test substance; relative to 5% glucose control group
Excerpt: Inhibitory Action on Airway Contraction (In Vivo, Transtracheal Administration)
The inhibitory action on airway contraction by the NK2 receptor agonist, neurokinin A (NKA) was investigated using airway internal pressure as an indicator in normal guinea pigs (body weights: about 500 g, Hartley male guinea pigs) using a variation of the method of Konzett-Roessler (Naunyn-Schmiedebergs Arch. Exp. Pathol. Pharmakol. 195, 71 (1940)).
A tracheal cannula and venous cannula were implanted in the guinea pigs under pentobarbital anesthesia (50 mg/mL of liquid, 0.40 to 0.50 mL/body, s.c.). In addition, an arterial cannula filled with heparin-containing physiological saline (100 U/mL) was implanted to monitor blood pressure and heart rate via an amplifier and instantaneous cardiograph. Next, after administering gallamine (20 mg/kg, i.v.) and interrupting spontaneous respiration, positive pressure ventilation (Ugo-Basile Biological Research Apparatus, Cat. No. 7025) was rapidly carried out at 10 mL/kg and 60 times/minute. The airway internal pressure during artificial respiration was detected with a pressure transducer (Nihon Koden, TP-200T or TP-400T) implanted in the lateral branch of the tracheal cannula, amplified (Nihon Koden, AP-601G) and recorded with a recorder (Nihon Koden, WT-645G or WT-685G). After the airway internal pressure, blood pressure and heart rate had stabilized, the standard tracheal contracting substance, methacholine was administered at 10 μg/kg (100 μg/mL, 0.10 mL/kg) to confirm airway response. In the case the prescribed contraction response was not obtained, methacholine was additionally administered at 12 μg/kg (120 μg/mL, 0.10 mL/kg) followed by confirmation of airway response. Five minutes after confirming airway response, NKA was administered intravenously through the intravenous cannula at 4 μg/kg to induce airway contraction followed by measuring airway internal pressure for the next 10 minutes.
The test substance was dissolved in 5% glucose, and a 0.5 mL/kg solution was administered into the airway using an intratracheal administration instrument (1A-1B, Penn-Century).
The surface value over which airway internal pressure had increased at 10 minutes after administration of NKA was taken to represent the strength of NKA-induced airway contraction, and the inhibition rate was calculated relative to a control group (5% glucose transtracheal dose group).

SMILES: Cl.Cl.O=C(CN1CCOCC1)O[C@H]1Cc2ccccc2C12CCN(CC[C@@]1(c3ccc(Cl)c(Cl)c3)CN(C(=O)c3cc(C(F)(F)F)cc(C(F)(F)F)c3)CCO1)CC2 [Example 6, 1-(2-{(2R)-2-(3,4-Dichlorophenyl)-4-[3,5-bis(trifluoromethyl)benzoyl]morpholin-2-yl}ethyl)spiro((2S)-2-{[(morpholin-1-yl)acetyl]oxy})indane-1,4′-piperidine dihydrochloride]
- Inhibition Rate (%) of NKA-induced airway contraction: 97%

SMILES: Cl.Cl.O=C(CO[C@H]1Cc2ccccc2C12CCN(CC[C@@]1(c3ccc(Cl)c(Cl)c3)CN(C(=O)c3cc(C(F)(F)F)cc(C(F)(F)F)c3)CCO1)CC2)N(CCO)CCO [Example 31, 1-(2-{(2R)-2-(3,4-Dichlorophenyl)-4-[3,5-bis(trifluoromethyl)benzoyl]morpholin-2-yl}ethyl)spiro((2S)-2-{2-[bis(2-hydroxyethyl)amino]-2-oxoethoxy})indane-1,4′-piperidine dihydrochloride]
- Inhibition Rate (%) of NKA-induced airway contraction: 82%

SMILES: CN(CCO)C(=O)CO[C@H]1Cc2ccccc2C12CCN(CC[C@@]1(c3ccc(Cl)c(Cl)c3)CN(C(=O)c3cc(C(F)(F)F)cc(C(F)(F)F)c3)CCO1)CC2.Cl [Example 32, 1-(2-{(2R)-2-(3,4-Dichlorophenyl)-4-[3,5-bis(trifluoromethyl)benzoyl]morpholin-2-yl}ethyl)spiro((2S)-2-{[N-(2-hydroxyethyl)-N-methylamino]-2-oxoethoxy})indane-1,4′-piperidine hydrochloride]
- Inhibition Rate (%) of NKA-induced airway contraction: 89%

SMILES: Cl.O=C(CO[C@H]1Cc2ccccc2C12CCN(CC[C@@]1(c3ccc(Cl)c(Cl)c3)CN(C(=O)c3cc(C(F)(F)F)cc(C(F)(F)F)c3)CCO1)CC2)NCCO [Example 33, 1-(2-{(2R)-2-(3,4-Dichlorophenyl)-4-[3,5-bis(trifluoromethyl)benzoyl]morpholin-2-yl}ethyl)spiro((2S)-2-{2-[N-(2-hydroxyethyl)amino]-2-oxoethoxy})indane-1,4′-piperidine hydrochloride]
- Inhibition Rate (%) of NKA-induced airway contraction: 93%

SMILES: CN(CCCCO)C(=O)CO[C@H]1Cc2ccccc2C12CCN(CC[C@@]1(c3ccc(Cl)c(Cl)c3)CN(C(=O)c3cc(C(F)(F)F)cc(C(F)(F)F)c3)CCO1)CC2.Cl [Example 58, 2-[((2S)-1′-{2-[(2R)-4-[3,5-bis(Trifluoromethyl)benzoyl]-2-(3,4-dichlorophenyl)morpholin-2-yl]ethyl}-2,3-dihydrospiro[indene-1,4′-piperidin]-2-yl)oxy]-N-(4-hydroxybutyl)-N-methylacetamide hydrochloride]
- Inhibition Rate (%) of NKA-induced airway contraction: 90%

SMILES: CN(CCCO)C(=O)CO[C@H]1Cc2ccccc2C12CCN(CC[C@@]1(c3ccc(Cl)c(Cl)c3)CN(C(=O)c3cc(C(F)(F)F)cc(C(F)(F)F)c3)CCO1)CC2.Cl [Example 64, 2-[((2S)-1′-{2-[(2R)-4-[3,5-bis(Trifluoromethyl)benzoyl]-2-(3,4-dichlorophenyl)morpholin-2-yl]ethyl}-2,3-dihydrospiro[indene-1,4′-piperidin]-2-yl)oxy]-N-(3-hydroxypropyl)-N-methylacetamide hydrochloride]
- Inhibition Rate (%) of NKA-induced airway contraction: 87%

SMILES: Cl.O=C(CO[C@H]1Cc2ccccc2C12CCN(CC[C@@]1(c3ccc(Cl)c(Cl)c3)CN(C(=O)c3cc(C(F)(F)F)cc(C(F)(F)F)c3)CCO1)CC2)N1CCC(CCO)CC1 [Example 69, 2-(1-{[((2S)-1′-{2-[(2R)-4-[3,5-bis(Trifluoromethyl)benzoyl]-2-(3,4-dichlorophenyl)morpholin-2-yl]ethyl}-2,3-dihydrospiro[indene-1,4′-piperidin]-2-yl)oxy]acetyl}piperidin-4-yl)ethanol hydrochloride]
- Inhibition Rate (%) of NKA-induced airway contraction: 88%
